Measurements from publication PMC9886550, “Molecular mechanism of topoisomerase poisoning by the peptide antibiotic albicidin” (Nature Catalysis, 2023).
Values after ≈ are worked out from the molar mass of the structure shown. Read-outs that look alike come from different tables or passages of the source. Marks after values point to notes of the source that are not given here.

Assays:
M. phlei DSM750 = experiment: MIC determination (microdilution, M07-A9); format: cell-based; settings: Mycolicibacterium phlei
Description: (§1) MIC values were determined according to the ninth edition of the Approved Standard M07-A9. The test was carried out for six different bacterial strains (E. coli DSM 1116 (Gram-negative), E. coli BW25113 (Gram-negative), B. subtilis DSM 10 (Gram-positive), M. luteus DSM 1790 (Gram-positive), M. phlei DSM 750 (Gram-positive), S. typhimurium TA 100 (Gram-negative). First, 20 µl of glycerol stock of each strain was inoculated in 20 ml LB (Lennox) followed by incubation overnight at 37 °C, 200 r.p.m. The test inoculum was adjusted by the 0.5 McFarland Standard. Within 15 min of preparation, the adjusted inoculum suspension was diluted in MHBII so that each well contained approximately 5 × 10^5 c.f.u. ml^−1 in a final volume of 100 µl. Then, 95 µl of the inoculum was applied per well and 5 µl of the (diluted) albicidins was added. For dilutions, the dry powders were dissolved in dimethylsulfoxide (DMSO) with a concentration of 2.56 mg ml^−1, and the obtained stock solutions were further diluted in DMSO. Next, 5 µl of each antibiotic dilution was applied to the microdilution tray to reach final concentrations of 8 to 0.016 µg ml^−1. One row of each well plate served as a growth control without antibiotic and another row of the microdilution tray served as a sterility control (only MHBII media). The antimicrobial effect of the solvent was tested by adding 5 µl DMSO to several wells. Purity check and cell titre control were performed according to International Standard M07-A9 on Mueller–Hinton II Agar. Both microdilution trays and agar plates were incubated at 37 °C for 20 h.

E. coli DSM116 = experiment: MIC determination (microdilution, M07-A9); format: cell-based
Description: as §1

M. luteus DSM1790 = experiment: MIC determination (microdilution, M07-A9); format: cell-based
Description: as §1

S. typhimurium TA100 = experiment: MIC determination (microdilution, M07-A9); format: cell-based
Description: as §1

B. subtilis DSM10 = experiment: MIC determination (microdilution, M07-A9); format: cell-based; settings: Bacillus subtilis
Description: as §1

E. coli BW25113 = experiment: MIC determination (microdilution, M07-A9); format: cell-based; settings: E. coli BW25113
Description: as §1

[1] = system: selected Gram-negative and Gram-positive microorganisms; experiment: MIC activity groups over all tested strains; format: cell-based; parameters: key: a: most potent; b: intermediate; least active; settings: MIC panel
Description: as §1

E. coli gyrase = target: T1, E. coli gyrase (Escherichia coli, UniProt P0AES4+P0AES6); experiment: Gyrase cleavage of linear DNA fragments (Mu217 and others); format: biochemical; settings: in words
T1 construct: alternative cryo-EM approach involving full-length E. coli gyrase; 10-His (cleaved yes); Twin-Strep (cleaved yes); made in house
T1 sequence (P0AES4 whole entry, the tested form may be a part, one chain of several): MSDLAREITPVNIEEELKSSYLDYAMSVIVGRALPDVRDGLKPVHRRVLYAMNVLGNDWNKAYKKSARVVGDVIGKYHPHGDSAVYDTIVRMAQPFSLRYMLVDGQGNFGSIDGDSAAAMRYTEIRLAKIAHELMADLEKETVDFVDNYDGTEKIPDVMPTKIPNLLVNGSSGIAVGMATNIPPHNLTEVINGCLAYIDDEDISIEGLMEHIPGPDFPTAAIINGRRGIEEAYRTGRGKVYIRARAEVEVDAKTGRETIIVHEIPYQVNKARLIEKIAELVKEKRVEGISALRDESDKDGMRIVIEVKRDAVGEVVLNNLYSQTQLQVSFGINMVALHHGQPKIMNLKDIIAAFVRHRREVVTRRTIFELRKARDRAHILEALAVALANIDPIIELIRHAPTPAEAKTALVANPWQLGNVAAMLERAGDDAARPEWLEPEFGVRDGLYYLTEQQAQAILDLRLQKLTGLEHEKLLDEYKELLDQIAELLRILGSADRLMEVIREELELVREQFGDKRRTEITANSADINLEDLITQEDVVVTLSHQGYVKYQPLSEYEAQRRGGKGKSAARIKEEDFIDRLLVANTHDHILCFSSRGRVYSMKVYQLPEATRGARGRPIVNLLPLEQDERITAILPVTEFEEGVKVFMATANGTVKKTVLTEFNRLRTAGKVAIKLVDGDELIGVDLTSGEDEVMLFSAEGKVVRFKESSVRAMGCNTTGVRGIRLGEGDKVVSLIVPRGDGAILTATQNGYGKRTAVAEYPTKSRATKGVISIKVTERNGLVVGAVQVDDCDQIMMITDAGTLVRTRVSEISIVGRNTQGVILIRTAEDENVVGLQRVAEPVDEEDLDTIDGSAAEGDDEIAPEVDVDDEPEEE
Description: Mu217 DNA (25 nM) was incubated with 0.4 µM gyrase and indicated concentrations (1 or 10 µM) of diazirine-labelled albicidin (photo-Albi, φAlbi) in a volume of 20 µl (~70 ng DNA) at 37 °C for 30 min in gyrase cleavage buffer (see section 'Topoisomerase assays'). For CFX competition experiments, 30 µM CFX was added first, followed by the albicidin. Reactions were either irradiated with ultraviolet 365 nm (benchtop transilluminator) with cooling (ice) for 30 min or left on ice for 30 min (‘dark’). Then, 0.2% SDS and 0.2 mg ml^−1 proteinase K were added to both samples, which were incubated for another 30 min. Reactions were mixed with loading dye (STEB) and chloroform:isoamyl alcohol (24:1 v/v) before vortexing and centrifugation. The aqueous phase was loaded on 4–20% TBE (Tris–borate–EDTA) polyacrylamide gel (Thermo) and ran for 1 h at 150 V. DNA was visualized with SYBR Gold (Thermo) staining.
Extended Data Fig. 1 Length dependency of albicidin-mediated DNA cleavage. Position of cleaved DNA indicated by arrows and red dots. ATP and ADPNP were added as indicated, (----) stands for no nucleotide added. 20 nM gyrase, 1 µM albicidin and 25 nM DNA was used in each reaction.
Extended Data Fig. 5 Photocrosslinking of diazirine-labelled albicidin (photo-Albi) to the DNA. a. Structures of N-terminal photo-Albi and control compound. b. DNA cleavage assay with Mu217 fragment and indicated concentrations of compounds. The labelled DNA band appearing upon irradiation of a photo-compound when bound to the complex is marked by a yellow star. c. Ciprofloxacin competition experiment. Pre-incubation with excess CFX prevents albicidin binding and crosslinking. Details of the experiment are available in Methods section.

WT E. coli gyrase = target: T2, WT E. coli gyrase (Escherichia coli, UniProt P0AES4+P0AES6); experiment: biochemical; format: biochemical; settings: WT gyrase 20 nM; in words
T2 construct: alternative cryo-EM approach involving full-length E. coli gyrase; 10-His (cleaved yes); Twin-Strep (cleaved yes); made in house
T2 sequence (P0AES4 whole entry, one chain of several): as the sequence (P0AES4 whole entry, the tested form may be a part, one chain of several) above
Description: For DNA gyrase supercoiling assays to characterize gyrase mutants, 15 µl reactions were set up containing 250 ng of relaxed DNA, E. coli gyrase supercoiling buffer (35 mM Tris–Cl pH 7.5, 24 mM KCl, 4 mM MgCl2, 2 mM DTT, 1.8 mM spermidine, 1 mM ATP, 6.0% (w/v) glycerol, and 0.1 mg ml^−1 BSA), gyrase subunits and inhibitors. Concentrations of enzyme and inhibitor are stated in the figure legends. Inhibitors were diluted in the following way to reduce the chance of precipitation: stock compound in 100% DMSO was diluted to 5 mM in 100% DMSO. This compound solution was diluted to 1 mM by stepwise addition of 1 µl of 50% DMSO with thorough mixing via pipetting after each addition. All subsequent dilutions up to 100 µM were performed in the same way using H2O. After this point, compounds were stable and could be diluted in the normal way. Reactions were incubated at 37 °C for 30 min before stopping with 15 µl chloroform:isoamyl alcohol (24:1 v/v) and 15 µl of STEB (40% (w/v) sucrose, 100 mM Tris–Cl pH 8, 10 mM EDTA, 0.5 mg ml^−1 bromophenol blue).
Cleavage assays were set up in the same way as supercoiling assays with some modifications. The concentration of enzyme was increased 4-fold relative to the supercoiling assay and reactions were incubated for 1 h before addition of 0.2% SDS and proteinase K (0.2 mg ml^−1) and further incubation at 37 °C for 30 min to trap cleavage complexes. Reactions were stopped in the same way as supercoiling assays.
Results were visualized by agarose gel electrophoresis: 1% agarose Tris-acetate-EDTA (TAE) gels were run without ethidium bromide (supercoiling) or with 10 µg ml^−1 ethidium bromide (cleavage) at 8 V cm^−1.
DNA cleavage gels were analysed using densitometry (ImageJ). Experiments were carried out in triplicate and expressed as mean ± s.d. Curves were fitted using OriginPro 2021 (Origin Lab) according to a modified Hill equation:1 y=cI+(cF−cI)[…]/(k^n+x^n) where y is the percentage of cleaved DNA, cI is the initial cleavage, cF is the final cleavage, k is the CC50 (the concentration of inhibitor that results in cleavage of 50% of DNA), n is a slope factor and x is the inhibitor concentration.

[2] = first value in cell (biological replicate)
[3] = second value in cell (biological replicate)
[4] = E. coli DSM116, second value in cell (biological replicate)
[5] = Escherichia coli, E. coli DSM116, first value in cell (biological replicate), read-out: MIC
[6] = Micrococcus luteus, first value in cell (biological replicate), read-out: MIC
[7] = Salmonella enterica, first value in cell (biological replicate), read-out: MIC
[8] = Escherichia coli, first value in cell (biological replicate), read-out: MIC

| SMILES | MIC (M. phlei DSM750; [2]) [µg/mL] | MIC (M. phlei DSM750; [3]) [µg/mL] | MIC (E. coli DSM116; [4]) | MIC (E. coli DSM116; [5]) [µg/mL] | MIC (M. luteus DSM1790; [6]) [µg/mL] | MIC (M. luteus DSM1790; [3]) | MIC (S. typhimurium TA100; [7]) [µg/mL] | MIC (B. subtilis DSM10; [2]) [µg/mL] | MIC (B. subtilis DSM10; [3]) [µg/mL] | MIC (E. coli BW25113; [8]) [µg/mL] | activity group (superscript letter) [1] | MIC (E. coli DSM116; Escherichia coli, DSM116, E. coli DSM116, first value in cell (biological replicate), read-out: MIC) [µg/mL] | MIC (E. coli DSM116; Escherichia coli, DSM116, E. coli DSM116, second value in cell (biological replicate), read-out: MIC) [µg/mL] | MIC (S. typhimurium TA100; [3]) | MIC (E. coli BW25113; [3]) | activity against gyrase (E. coli gyrase) | activity in a DNA cleavage assay relative to albicidin (WT E. coli gyrase) |
| --- | --- | --- | --- | --- | --- | --- | --- | --- | --- | --- | --- | --- | --- | --- | --- | --- | --- |
| COc1c(NC(=O)c2ccc(NC(=O)[C@H](Cc3c[nH]nn3)NC(=O)c3ccc(NC(=O)c4ccc(C#N)cc4)cc3)cn2)ccc(F)c1F [AE-5] | > 8 | > 8 | >8.0 >8.0 µg ml^−1 | > 8 | > 8 | >8.0 >8.0 µg ml^−1 | > 8 | > 8 | > 8 | > 8 | AE-5^c | – | – | – | – | – | – |
| COc1c(NC(=O)c2ccc(NC(=O)c3ccc(NC(=O)[C@H](Cc4c[nH]nn4)NC(=O)c4ccc(NC(=O)/C(C)=C/c5ccc(O)cc5)cc4)cn3)c(OC)c2O)ccc(C(=O)O)c1O [Azahis–Albi] | 0.125 (≈ 0.141 µM) | 0.5 (≈ 0.564 µM) | – | – | 0.031 (≈ 0.035 µM) | – | < 0.016 | 0.031 (≈ 0.035 µM) | 0.063 (≈ 0.0711 µM) | < 0.016 | – | < 0.016 | < 0.016 | <0.016 <0.016 µg ml^−1 | <0.016 <0.016 µg ml^−1 | – | – |
| C#CC[C@H](NC(=O)c1ccc(NC(=O)c2ccc(C3(C(F)(F)F)N=N3)cc2)cc1)C(=O)Nc1ccc(C(=O)Nc2ccc(C(=O)Nc3ccc(C(=O)O)c(O)c3OC)c(O)c2OC)nc1 [photo-Albi] | – | – | – | – | – | – | – | – | – | – | – | – | – | – | – | active against gyrase | – |
| COc1c(NC(=O)c2ccc(NC(=O)c3ccc(NC(=O)[C@H](Cc4c[nH]nn4)NC(=O)c4ccc(C#Cc5ccc(C#N)cc5)cc4)cn3)c(OC)c2O)ccc(C(=O)O)c1O [Alkyne–Albi] | 0.25 (≈ 0.299 µM) | 0.5 (≈ 0.598 µM) | <0.016 <0.016 µg ml^−1 | < 0.016 | < 0.016 | <0.016 <0.016 µg ml^−1 | < 0.016 | 0.063 (≈ 0.0754 µM) | 0.125 (≈ 0.15 µM) | < 0.016 | Alkyne–Albi^a | – | – | – | – | – | as active as albicidin |
| COc1ccccc1NC(=O)c1ccc(NC(=O)[C@H](Cc2c[nH]nn2)NC(=O)c2ccc(NC(=O)c3ccc(C#N)cc3)cn2)cn1 [AE-1] | > 8 | > 8 | >8.0 >8.0 µg ml^−1 | > 8 | > 8 | >8.0 >8.0 µg ml^−1 | > 8 | > 8 | > 8 | > 8 | AE-1^c | – | – | – | – | – | – |
| COc1ccccc1NC(=O)c1ccc(NC(=O)[C@H](Cc2c[nH]nn2)NC(=O)c2ccc(NC(=O)/C(C)=C/c3ccc(O)cc3)cc2)cn1 [AE-3] | > 8 | > 8 | >8.0 >8.0 µg ml^−1 | > 8 | > 8 | >8.0 >8.0 µg ml^−1 | > 8 | > 8 | > 8 | > 8 | AE-3^c | – | – | – | – | – | – |
| CC(C)Oc1ccccc1NC(=O)c1ccc(NC(=O)[C@H](Cc2c[nH]nn2)NC(=O)c2ccc(NC(=O)c3ccc(C#N)cc3)cn2)cn1 [AE-4] | > 8 | > 8 | >8.0 >8.0 µg ml^−1 | > 8 | > 8 | >8.0 >8.0 µg ml^−1 | > 8 | > 8 | > 8 | > 8 | AE-4^c | – | – | – | – | – | – |
| COc1ccccc1NC(=O)c1ccc(NC(=O)[C@H](Cc2c[nH]nn2)NC(=O)c2ccc(NC(=O)c3ccc(C#N)cc3)cc2)cn1 [AE-2] | > 8 | > 8 | >8.0 >8.0 µg ml^−1 | > 8 | > 8 | >8.0 >8.0 µg ml^−1 | > 8 | > 8 | > 8 | > 8 | AE-2^c | – | – | – | – | – | – |
